As a reminder, the Kd is the constant that tells how readily two partners part at equilibrium. Read a low Kd as tighter binding.

Results on two compounds are retold here after publication PMC13340911 (Archives of biochemistry and biophysics, 2025).

Assay [1] addresses T1, Nocturnin (NOCT) (Homo sapiens, UniProt Q9UK39).
T1 sequence (Q9UK39 122-431): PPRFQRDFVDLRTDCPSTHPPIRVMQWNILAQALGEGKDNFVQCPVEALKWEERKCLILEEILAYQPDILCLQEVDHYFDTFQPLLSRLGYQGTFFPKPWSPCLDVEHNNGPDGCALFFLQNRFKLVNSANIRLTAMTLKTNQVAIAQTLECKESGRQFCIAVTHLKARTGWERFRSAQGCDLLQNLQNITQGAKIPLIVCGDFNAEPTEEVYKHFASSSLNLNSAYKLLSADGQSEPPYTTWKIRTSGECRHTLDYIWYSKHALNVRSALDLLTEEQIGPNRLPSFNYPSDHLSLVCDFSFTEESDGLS
Description: steady-state phosphatase kinetics of purified NOCT. The assay is classed as biochemical.

The target in assay [2] is T1, Nocturnin (NOCT). The experiment in a line: NADPH intrinsic fluorescence titration. The assay is classed as binding.
Assay [3] addresses T2, Nocturnin (NOCT) (Homo sapiens, UniProt Q9UK39, N149A).
T2 sequence (Q9UK39 122-431 N149A): T1 sequence (Q9UK39 122-431) with N28A
The experiment in a line: NADPH intrinsic fluorescence titration. The assay is classed as binding.

In assay [4] the target is T3, Nocturnin (NOCT) (Homo sapiens, UniProt Q9UK39, H286N).
T3 sequence (Q9UK39 122-431 H286N): T1 sequence (Q9UK39 122-431) with H165N
The experiment in a line: NADPH intrinsic fluorescence titration. Type of assay: binding.

Assay [5] has as its target T4, Nocturnin (NOCT) (Homo sapiens, UniProt Q9UK39, H414N).
T4 sequence (Q9UK39 122-431 H414N): T1 sequence (Q9UK39 122-431) with H293N
Description: NADPH intrinsic fluorescence titration. Type of assay: binding.

SMILES strings stand for the structures. Positions count from the first letter of the chain named.

In the case of `NC(=O)c1ccc[n+]([C@@H]2O[C@H](COP(=O)(O)OP(=O)(O)OC[C@H]3O[C@@H](n4cnc5c(N)ncnc54)[C@H](OP(=O)(O)O)[C@@H]3O)[C@@H](O)[C@H]2O)c1` [NADP^+], the “steady-state phosphatase kinetics of purified NOCT (malachite green); value is k” value on Nocturnin (NOCT) [1] turned out to be 78.

Take `NC(=O)C1=CN([C@@H]2O[C@H](COP(=O)(O)OP(=O)(O)OC[C@H]3O[C@@H](n4cnc5c(N)ncnc54)[C@H](OP(=O)(O)O)[C@@H]3O)[C@@H](O)[C@H]2O)C=CC1` [NADPH]: the Kd came to 308 µM on Nocturnin (NOCT) [2], 473 µM at Nocturnin (NOCT) [3], 219 µM at Nocturnin (NOCT) [4] and 338 µM on Nocturnin (NOCT) [5].
